Where two headings read alike, the source gives them in different places.
How the values were obtained:
[1] = biological target: human prolyl oligopeptidase (Homo sapiens (Human), UniProt P48147); assay: POP inhibition assay (Z-G-P-AMC substrate, fluorimetric); format: biochemical
Experimental: Expression and Purification of Prolyl Oligopeptidase (POP)
POP was obtained by expression in E. coli and affinity purification using a His tail fusion according to a literature procedure (Tarragó T et al., ChemBioChem 2006; 7:827-33) summarized below:
hPOP expression: E. coli BL21 competent cells were transformed with pETM10 hPOP. To induce expression, a pre-culture of LB medium (50 mL) containing kanamycin (50 μg/mL) was inoculated with one colony and was grown overnight at 37° C. Next day, two cultures of LB medium (500 mL) were inoculated with the overnight culture (10 mL). The inoculated cultures were grown at 37° C. and 220 rpm until the OD595 was 1.2 (2.5-3 hours). IPTG was then added (final concentration of 1 mM) and induction was performed overnight at 25° C. Cells were harvested (3500 g, 15 min, 4° C.) and the pellet was suspended in suspension buffer (50 mL) [Tris-HCl pH 8 (50 mM), NaCl (300 mM), imidazole (1 mM)] and sonicated with use of four cycles (each consisting of 15 sec of sonication and 15 sec of rest) at an intensity of 50% and 0.5 pulses, the sample being kept on ice. After sonication, the sample was centrifuged (40 000 g, 30 min, 4° C.) and the supernatant was used immediately for POP purification. An ÁKTA explorer FPLC system was used for purification. The supernatant was applied at a flow of 1 mL/min to a HiTrapQuelating column (5 mL) previously equilibrated with 5 column volumes of suspension buffer. The column was washed with suspension buffer until the absorbance at 280 nm returned to basal level. The column was then rinsed with 5 volumes of washing buffer (50 mM Tris-HCl, pH 8, 300 mM NaCl, 30 mM imidazole). The elution was performed with 4 volumes of elution buffer (50 mM Tris-HCl, pH 8, 300 mM NaCl, 500 mM imidazole). Fractions (4 mL) were collected during the entire elution. POP activity was checked in all fractions and positive ones were analyzed by SDS-PAGE and stained with Biosafe Comassie Stain G-250. Positive fractions were collected and desalted by use of a HiPrep 26/10 Desalting column with Tris-HCl (50 mM, pH 8) as buffer. Recombinant hPOP was quantified with the Bio-Rad Protein Assay with BSA as standard. Aliquots of the recombinant enzyme were prepared and immediately frozen with liquid nitrogen and stored at −80° C.
POP activity was determined following the method described by Toide et al (Toide K et al., J. Pharmacol. Exp. Ther. 1995; 274:1370-8), using Z-G-P-AMC (N-benzyloxycarbonyl-Gly-Pro-methylcoumarinyl-7-amide) as POP substrate. The reactions were performed in 96-well microtiter plates, which allowed simultaneous monitoring of multiple reactions. For each reaction, activity buffer (134 μl, 100 mM Na/K phosphate buffer, pH 8.0) was pre-incubated for 15 min at 37° C. with hPOP (ranging from 20 to 60 nM, depending on the activity of the hPOP batch) and the corresponding new compound solution (3 μl). A stock solution of new compound was prepared in DMSO (100 mM), and dilutions were prepared from this stock solution with DMSO. Alternatively, the reactions were performed using another activity buffer (141 μL, 100 mM Tris-acetate, […], 1 mM DTT, pH 7.3), pre-incubating with hPOP (10 nM) and the corresponding new compound solution (3 μl) (Conditions B).
After preincubation, Z-G-P-AMC (10 μl, 3 mM in 40% 1,4-dioxane) was added (3 μl, 1.5 mM in 40% of 1,4-dioxane, in Conditions B), and the reaction was incubated for 1 hour at 37° C. The reaction was stopped by adding sodium acetate (150 μl, 1 M, pH 4) and the formation of AMC was measured fluorimetrically. The excitation and emission wavelengths were 360/40 and 485/20 nm, respectively.
Several concentration points (ranging from 25 μM to 400 μM) were measured for each compound. The inhibitory activity on prolyl oligopeptidase was calculated according to eq 1. For each new compound, the fluorescence in the presence (a) and in the absence of hPOP (b) was measured. […]

[2] = Parallel artificial membrane permeability assay (PAMPA); format: in vitro ADME; details: 200 μM initial concentration, pH 7.4, 4 hours, room temperature; for Papp at 4 h, 200 μM: PAMPA, read-out: Effective permeability Pe
Experimental: Parallel artificial membrane permeability assay (PAMPA) described in Kansy M et al., J. Med. Chem. 1998; 41(7):1007-10 was used to determine the capacity of compounds to cross the Blood-Brain Barrier (BBB) by passive diffusion (Di L et al., Eur. J. Med. Chem. 2003; 38(3):223-32). The effective permeability (Pe) of the compounds was measured at an initial concentration of 200 μM. The buffer solution was prepared from a commercial concentrated one following the manufacturer's instructions. pH was adjusted to 7.4 using a 0.5 M NaOH solution. A stock solution of new compound was prepared in DMSO and diluted with buffer solution to a final 200 μM concentration (0.5% DMSO content). The PAMPA sandwich was separated and each donor well was filled with 200 μL of the compound solution. The acceptor plate was placed into the donor plate, ensuring that the underside of the membrane was in contact with buffer. 4 μL of the mixture of phospholipids (20 mg/mL) in dodecane was added to the filter of each well, and 200 μL of buffer solution was added to the each acceptor well. The plate was covered and incubated at room temperature in a saturated humidity atmosphere for 4 hours under orbital agitation at 100 rpm. After 4 hours, the contents of the acceptor and donor compartments were analyzed by HPLC: 150 μL of each well from the donor plate and 150 μL of each well from the acceptor plate were transferred to HPLC vials, injecting each sample into a reverse-phase C18 column (150 mm×4.6 mm×5 μm, 100 Å) (100 μL/injection from the acceptor wells, 10 μL/injection from the donor wells and for t0 references). Transport was also confirmed by MALDI-TOF spectrometry.
The phospholipid mixture used was a porcine polar brain lipid extract, provided by Avanti polar lipids, with the following composition: 12.6% phosphatidylcholine (PC), 33.1% phosphatidylethanolamine (PE), 18.5% phosphatidylserine (PS), 4.1% phosphatidylinositol (PI), 0.8% phosphatidic acid and 30.9% of other compounds.
The effective permeability (Pe) after 4 hours was calculated using equation 2 and the percentage of transport was calculated using equation 3:
[formula] wherein: t is time (h) CA(t) is the compound concentration in the acceptor well at time t and CD(to) is the compound concentration in the donor well at to.

[3] = 100 mM Na/K phosphate buffer, pH 8.0, hPOP 20 to 60 nM, Z-G-P-AMC, 1 hour at 37° C., read-out: IC50, inhibition of human prolyl oligopeptidase
[4] = Conditions B: 100 mM Tris-acetate, 10 mM BSA, 1 mM DTT, pH 7.3, hPOP 10 nM, read-out: IC50, inhibition of human prolyl oligopeptidase, measured in conditions B

human prolyl oligopeptidase, sequence (P48147 whole entry): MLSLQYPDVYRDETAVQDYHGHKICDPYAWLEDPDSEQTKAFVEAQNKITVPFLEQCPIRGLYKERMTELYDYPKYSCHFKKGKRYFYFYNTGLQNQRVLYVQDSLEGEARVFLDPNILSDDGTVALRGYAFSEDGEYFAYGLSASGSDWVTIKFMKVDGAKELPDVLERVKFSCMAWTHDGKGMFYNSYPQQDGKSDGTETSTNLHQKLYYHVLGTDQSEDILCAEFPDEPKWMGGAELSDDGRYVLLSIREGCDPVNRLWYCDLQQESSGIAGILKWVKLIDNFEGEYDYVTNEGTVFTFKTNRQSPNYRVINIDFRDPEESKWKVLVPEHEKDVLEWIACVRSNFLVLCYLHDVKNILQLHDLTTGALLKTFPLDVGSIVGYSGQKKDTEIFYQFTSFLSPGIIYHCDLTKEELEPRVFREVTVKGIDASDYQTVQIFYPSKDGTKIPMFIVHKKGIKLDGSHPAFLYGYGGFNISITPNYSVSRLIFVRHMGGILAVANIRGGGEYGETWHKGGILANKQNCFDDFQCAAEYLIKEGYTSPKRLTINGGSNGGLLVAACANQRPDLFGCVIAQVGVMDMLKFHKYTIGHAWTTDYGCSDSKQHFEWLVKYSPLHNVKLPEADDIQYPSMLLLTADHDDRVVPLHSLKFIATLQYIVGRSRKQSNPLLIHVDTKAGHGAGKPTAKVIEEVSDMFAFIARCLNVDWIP

SMILES	IC50 [1, 3] [nM]	% T (percentage of transport) [2] [%]	Papp at 4 h, 200 μM [2] [×10⁻⁶ cm/s]	IC50 [1, 4] [nM]
COc1cc(C(=O)N2C[C@H](OC)C[C@H]2C(=O)N2CCC[C@H]2C#N)cc(OC)c1OCc1ccccc1 [Example 1, (S)-1-((2S,4R)-1-(4-(benzyloxy)-3,5-dimethoxybenzoyl)-4-methoxypyrrolidine-2-carbonyl)pyrrolidine-2-carbonitrile]	63.8	4.3	1	–
COc1cc(C(=O)N2C[C@H](F)C[C@H]2C(=O)N2CCC[C@H]2C#N)cc(OC)c1OCc1ccccc1 [Example 2, (S)-1-((2S,4R)-1-(4-(benzyloxy)-3,5-dimethoxybenzoyl)-4-fluoropyrrolidine-2-carbonyl)pyrrolidine-2-carbonitrile]	60.4	13.03	7.28	–
COc1cc(C(=O)N2C[C@H](c3ccccc3)C[C@H]2C(=O)N2CCC[C@H]2C#N)cc(OC)c1OCc1ccccc1 [Example 3, (S)-1-((2S,4S)-1-(4-(benzyloxy)-3,5-dimethoxybenzoyl)-4-phenylpyrrolidine-2-carbonyl)pyrrolidine-2-carbonitrile]	339	5.72	2.89	–
COc1cc(C(=O)N2C[C@@H](SC)C[C@H]2C(=O)N2CCC[C@H]2C#N)cc(OC)c1OCc1ccccc1 [Example 5, (S)-1-((2S,4S)-1-(4-(benzyloxy)-3,5-dimethoxybenzoyl)-4-(methythio)pyrrolidine-2-carbonyl)pyrrolidine-2-carbonitrile]	176	17.03	9.98	–
COc1cc(C(=O)N2C[C@@H](C)C[C@H]2C(=O)N2CCC[C@H]2C#N)cc(OC)c1OCc1ccccc1 [Example 6, (S)-1-((2S,4S)-1-(4-(benzyloxy)-3,5-dimethoxybenzoyl)-4-methylpyrrolidine-2-carbonyl)pyrrolidine-2-carbonitrile]	–	14.76	3.79	13.1
COc1cc(C(=O)N2C[C@@H](C(F)(F)F)C[C@H]2C(=O)N2CCC[C@H]2C#N)cc(OC)c1OCc1ccccc1 [Example 8, (S)-1-((2S,4S)-1-(4-(benzyloxy)-3,5-dimethoxybenzoyl)-4-(trifluoromethyl)-pyrrolidine-2-carbonyl)pyrrolidine-2-carbonitrile]	176	19.27	5.07	–
COc1cc(C(=O)N2C[C@H](OC(C)(C)C)C[C@H]2C(=O)N2CCC[C@H]2C#N)cc(OC)c1OCc1ccccc1 [Example 9, (S)-1-((2S,4R)-1-(4-(benzyloxy)-3,5-dimethoxybenzoyl)-4-(tert-butoxy)pyrrolidine-2-carbonyl)pyrrolidine-2-carbonitrile]	668	–	–	–
COc1cc(C(=O)N2CC(F)(F)C[C@H]2C(=O)N2CCC[C@H]2C#N)cc(OC)c1OC(C)=O [Example 11, (S)-1-((2S)-1-(4-acetoxy-3,5-dimethoxybenzoyl)-4,4-difluoropyrrolidine-2-carbonyl)pyrrolidine-2-carbonitrile]	352	–	–	–
COc1cc(C(=O)N2CC(F)(F)C[C@H]2C(=O)N2CCC[C@H]2C#N)cc(OC)c1OC(=O)c1ccccc1 [Example 12, (S)-1-((2S)-1-(4-benzoyloxy-3,5-dimethoxybenzoyl)-4,4-difluoropyrrolidine-2-carbonyl)pyrrolidine-2-carbonitrile]	111	8.47	2.1	–
COc1cc(C(=O)N2CC(F)(F)C[C@H]2C(=O)N2CCC[C@H]2C#N)cc(OCc2ccccc2)c1OCc1ccccc1 [Example 13, (S)-1-((2S)-1-(3,4-dibenzyloxy-5-methoxybenzoyl)-4,4-difluoropyrrolidine-2-carbonyl)pyrrolidine-2-carbonitrile]	336	–	–	–
COc1cc(C(=O)N2CC(F)(F)C[C@H]2C(=O)N2CCC[C@H]2C#N)cc(OC(C)=O)c1OC [Example 15, (S)-1-((2S)-1-(3-acetoxy-4,5-dimethoxybenzoyl)-4,4-difluoropyrrolidine-2-carbonyl)pyrrolidine-2-carbonitrile]	5600	–	–	–
COc1cc(C(=O)N2CC(F)(F)C[C@H]2C(=O)N2CCC[C@H]2C#N)cc(OC(=O)C(C)(C)C)c1OC [Example 16, (S)-1-((2S)-1-(3-pivaloyloxy-4,5-dimethoxybenzoyl)-4,4-difluoropyrrolidine-2-carbonyl)pyrrolidine-2-carbonitrile]	2140	19.08	5.02	–
N#C[C@@H]1CCCN1C(=O)[C@@H]1CC(F)(F)CN1C(=O)c1ccc(OCc2ccccc2)cc1 [Example 17, (S)-1-((S)-1-(4-(benzyloxy)benzoyl)-4,4-difluoropyrrolidine-2-carbonyl)pyrrolidine-2-carbonitrile]	–	14.12	8.04	287
N#C[C@@H]1CCCN1C(=O)[C@@H]1CC(F)(F)CN1C(=O)c1cccc(OCc2ccccc2)c1 [Example 18, (S)-1-((S)-1-(3-(benzyloxy)benzoyl)-4,4-difluoropyrrolidine-2-carbonyl)pyrrolidine-2-carbonitrile]	–	11.91	6.51	487
N#C[C@@H]1CCCN1C(=O)[C@@H]1CC(F)(F)CN1C(=O)c1ccccc1OCc1ccccc1 [Example 19, (S)-1-((S)-1-(2-(benzyloxy)benzoyl)-4,4-difluoropyrrolidine-2-carbonyl)pyrrolidine-2-carbonitrile]	–	17.55	10.3	255

Reference: patent US10125097B2, “1- [1-(benzoyl)-pyrrolidine-2-carbonyl]-pyrrolidine-2-carbonitrile derivatives” (UNIVERSITAT DE BARCELONA, priority 2012, dated 2018)
